From patent US20180021257A1, “WATER-SOLUBLE PHARMACEUTICAL COMPOSITION COMPRISING AT LEAST ONE THERAPEUTICALLY ACTIVE SUBSTANCE AND AT LEAST ONE SUBSTANCE CAPABLE OF FORMING MICELLES” (CONSEJO NACIONAL DE INVESTIGACIONES CIENTIFICAS Y TECNICAS …, priority 2015, published 2018)
In brackets after ≈: the same amount, converted by molar mass. Several values for one entry are separate records, joined by “and”; a condition that tells them apart may be missing. Equal entries are not always repeated. Where two headings read alike, the source gives them in different places.

How the values were obtained:
[1] = Loading of Ptx into antibiotic micelles, quantified by HPLC; type: physicochemical; details: for Maximum load / loading capacity: Ptx or Dtx in micelles; for Ptx loaded (%): 30 minutes, Teicoplanina 100 mg/ml, Ptx added 5 mg; for Ptx in Teicoplanin micelles: Teicoplanin 200 mg/ml
Description: Samples with 400 mg of teicoplanin were dissolved in 2 ml of distilled water at pH 5.5 or in 2 ml of phosphate buffer solution of 20 mM at pH 6, with gentle stirring in order to obtain full dissolution. The solution was allowed to stand for at least 4 hours at 4° C. A 0.5 ml aliquot was incubated with 25 μl of DMSO having increasing amounts of Paclitaxel (Ptx) in order to reach the following final concentrations: 1 mg/ml, 5 mg/ml, 10 mg/ml and 20 mg/ml.
The solutions were incubated at 25° C. for at least 4 hours and then centrifuged at 15,000×g for 10 minutes to remove the potential insoluble Ptx that had not encapsulated in teicoplanin micelles. Finally, in order to remove the remaining DMSO, the samples were dialyzed with a phosphate buffer solution of 20 mM at pH 6 for 12 hours. The quantification of Ptx introduced into teicoplanin micelles was carried out by using HPLC.
Ptx is loaded into teicoplanin micelles at a concentration of 5 mg/ml, according to the description of Example 1, but for 30 minutes at 4° C., 25° C. and 37° C. After incubation, the samples were centrifuged at 15,000×g for 10 minutes and they were also dialyzed in distilled water for 12 hours at 4° C. Finally, the amount of Ptx introduced into the teicoplanin micelle in a soluble way was quantified by HPLC. […] The load in all conditions was higher than 90%.

[2] = in vivo; cited from earlier work
[3] = cited from earlier work
[4] = Particle size of micelles by dynamic light scattering (DLS); type: physicochemical; details: for Diameter of micelles: comparative study, dynamic light scattering
Source text: Determining Particle Size of Teico, Teico-Ptx and Teico-PTX-Alb Micelles by Dynamic Light Scattering (DLS)

[5] = cited from earlier work; remark: listed apart in the source
[6] = cited from earlier work; for Micelles stable (Daptomycin: and biologically active): at 25° C.
[7] = Solubility in aqueous medium; type: physicochemical
HEP-2 = assay: In vitro cytotoxic activity in tumor cell culture (MTT test); type: cell-based; details: for Cell Death after 24 Hours of Treatment: HEP-2, MTT
Description: Tumor cells, such as HEP-2, were incubated in MEM medium having fetal bovine serum by 2% (Natocor-Villa Carlos Paz—Cordoba—Argentina) in a CO2 incubator by 5% CO2, at confluence. Different concentrations of the compositions mentioned below were added to the cell culture: […]

[8] = Loading of Ptx into antibiotic micelles, quantified by HPLC; type: physicochemical; details: Teicoplanin 200 mg/ml; Ptx concentration 2.5 mg/ml
[9] = Dialysis experiments on Teicoplanin micelles; type: physicochemical; details: after 48 hours of dialysis
Description: In fact, in dialysis experiments, it was shown a loss of about 25% of molecules of Teicoplanin after 48 hours of dialysis, while for the Teico-Ptx complex is was shown a loss of about 5 to 8%.

[10] = Critical micelle concentration (CMC); type: physicochemical
[11] = aqueous medium with teicoplanin micelles, aqueous with cosolvent or surfactant or cyclodextrin
[12] = aqueous medium without micelles

For `CCCCCCCCCC(=O)N[C@@H](Cc1c[nH]c2ccccc12)C(=O)N[C@H](CC(N)=O)C(=O)N[C@@H](CC(=O)O)C(=O)N[C@@H]1C(=O)NCC(=O)N[C@@H](CCCN)C(=O)N[C@@H](CC(=O)O)C(=O)N[C@H](C)C(=O)N[C@@H](CC(=O)O)C(=O)NCC(=O)N[C@H](CO)C(=O)N[C@@H]([C@H](C)CC(=O)O)C(=O)N[C@@H](CC(=O)c2ccccc2N)C(=O)O[C@@H]1C` [Daptomycin], the “Maximum load / loading capacity” value [1] is listed as 5 mg/mL, the Half life [2] is listed as 7 to 10 h and the Suggested maximum dose ([3]; in vivo) is listed as 10 to 12 mg/kg/day. For the same molecule, the Diameter of micelles [4] was 5 nm, the CMC ([5]; pH 4, listed as Dapto micelles) was 400 μg/ml and 250 μM and the “Concentration at which molecule remains soluble” value ([5]; pH 6.5) was 150 mg/mL. For the same molecule, the “Micelles stable and biologically active” value ([6]; at 4° C.) was 48 hours and the “Micelles stable (Daptomycin: and biologically active)” value [6] was 12 hours.

For `CC(=O)O[C@@]12CO[C@@H]1C[C@H](O)[C@@]1(C)C(=O)[C@H](O)C3=C(C)[C@@H](OC(=O)[C@H](O)[C@@H](NC(=O)OC(C)(C)C)c4ccccc4)C[C@@](O)([C@@H](OC(=O)c4ccccc4)[C@H]21)C3(C)C` [Dtx, Docetaxel], the solubility [7, 11] was 10000 µg/mL (≈ 12.4 mM) and the solubility [7, 12] was < 1 µg/mL.

For `CC(=O)O[C@H]1C(=O)[C@@]2(C)[C@H]([C@H](OC(=O)c3ccccc3)[C@]3(O)C[C@H](OC(=O)[C@H](O)[C@@H](NC(=O)c4ccccc4)c4ccccc4)C(C)=C1C3(C)C)[C@]1(OC(C)=O)CO[C@@H]1C[C@@H]2O` [Ptx, Paclitaxel], the “Cell Death after 24 Hours of Treatment” value (HEP-2; Ptx 5 nM) was 10%, the “Cell Death after 24 Hours of Treatment” value (HEP-2; Ptx 10 nM) was 25% and the “Cell Death after 24 Hours of Treatment” value (HEP-2; Ptx 20 nM) was 40%. The “Cell Death after 24 Hours of Treatment” value (HEP-2; Ptx 50 nM) was 90%, the “Killing of tumor cells” value (HEP-2; in 24 hours up to a concentration of 50 ng/ml) was “complete killing” and the solubility [7, 11] was 10000 µg/mL (≈ 11.7 mM). The solubility [7, 12] was < 1 µg/mL.

In the case of Teicoplanin, the “Ptx loaded (%)” value ([1]; 4° C.) is reported as 94%, the “Ptx loaded (%)” value ([1]; 25° C.) is reported as 96% and the “Ptx loaded (%)” value ([1]; 37° C.) is reported as 98%. The “Load capacity compared with Daptomycin” value ([1]; Dtx or Ptx) was “twice”, the “Maximum load / loading capacity” value [1] was 10 mg/mL and the “Maximum load / loading capacity” value ([1]; listed as Teicoplanin micelles) was “about 10 mg/ml”. For the same molecule, the “Ptx in Teicoplanin micelles” value ([1]; Ptx concentration 1 mg/ml) was 1 mg/mL, the “Ptx in Teicoplanin micelles” value ([1]; Ptx concentration 5 mg/ml) was 5 mg/mL and the “Ptx in Teicoplanin micelles” value ([1]; Ptx concentration 10 mg/ml) was 10 mg/mL. For the same molecule, the “Ptx in Teicoplanin micelles” value ([1]; Ptx concentration 20 mg/ml) was 2 mg/mL, the Ptx load ([1]; in all conditions (4° C., 25° C. and 37° C.)) was “higher than 90%” and the Half life [2] was 70 to 100 h. For the same molecule, the “Cell Death after 24 Hours of Treatment” value (HEP-2; Teico 5 μM control micelles without Ptx) was 0%, the Effect on cells (HEP-2; Teicoplanin by itself) was “no effect” and the “Interaction with red blood cells (RBCs)” value (red blood cells (RBCs)) was “neither Teicoplanin nor Teico-Ptx complex interact with red blood cells”. For the same molecule, the Suggested maximum dose ([3]; to avoid unwanted side effects or cytotoxicity) was 20 mg/kg/day, the “Ptx in Teicoplanin micelles” value [8] was 2.5 mg/mL and the “Size larger than Dapto and Dapto-Ptx micelles” value [4] was 40%. For the same molecule, the Particle size ([4]; DLS, Example 5) was 8 nm, the Polydispersity index ([4]; DLS, Example 5) was 0.017 and the Diameter of micelles [4] was 8 nm. The “Loss of molecules of Teicoplanin” value [9] was “about 25%”, the Micelles stable ([6]; at 4° C.) was 35 days and the “Micelles stable (Daptomycin: and biologically active)” value [6] was 48 hours. The CMC [10] was 100 µM.
